In patent US5460977A, “Peptide having allergenicity” (Torii & Co., priority 1992, dated 1995):
Positions of bridges follow the written chain, without caps; N, C: chain ends. Residues, ends and D or L forms follow the SMILES beside them. Chains are numbered I, II in the order given.

Columns and labels:
[1] = system: peripheral blood lymphocytes of non-allergic subject; assay: Blast formation of lymphocytes (3H-thymidine incorporation), non-allergic subject; type: cell-based, human; conditions: Specimen 4, lymphocytes of non-allergic subject; 7 days culture with peptide, 3H-thymidine overnight
Procedure: (§1) Blast formation of lymphocytes by peptides of formula I-V of the present invention
(§2) Peripheral blood lymphocytes collected from a mite-allergic patient or a non-allergic subject were suspended in a cell culture medium RPMI 1640 supplemented with 10% fetal bovine serum, so as to give a suspension of 1×10^6 cells/ml. Then, the suspension (0.2 ml/well) prepared above was placed in a 96-well microplate for cell culture and further, 20 μl each of a solution of one of the peptides of the formula I-V was placed in the respective wells. The lymphocytes thus treated were cultivated in a humidified atmosphere containing 5% CO2 at 37° C. for 7 days. Thereafter, 20 μl of a ^3 H-thymidine solution (12.5 μCi/ml) was added to each of the wells and allowed to react overnight. The peripheral blood lymphocytes were then collected onto filter, and the radioactivity was measured by a liquid scintillation counter.
(§3) As is apparent from Table 1, virtually no incorporation of ^3 H-thymidine was recognized in the peripheral blood lymphocyte of a non-allergic subject, while a high radioactivity was detected from the peripheral blood lymphocytes of a mite-allergic patient.

[2] = system: peripheral blood lymphocytes of mite-allergic patient; assay: Blast formation of lymphocytes (3H-thymidine incorporation), mite-allergic patients; type: cell-based, human; conditions: 7 days culture with peptide, 3H-thymidine overnight; for radioactivity of 3H-thymidine incorporated into lymphocytes, Specimen 1: Specimen 1, lymphocytes of mite-allergic patient; for radioactivity of 3H-thymidine incorporated into lymphocytes, Specimen 2: Specimen 2, lymphocytes of mite-allergic patient; for radioactivity of 3H-thymidine incorporated into lymphocytes, Specimen 3: Specimen 3, lymphocytes of mite-allergic patient
Procedure: as §1, §2, §3

Compound | radioactivity of 3H-thymidine incorporated into lymphocytes, Specimen 4 [1] | radioactivity of 3H-thymidine incorporated into lymphocytes, Specimen 1 [2] | radioactivity of 3H-thymidine incorporated into lymphocytes, Specimen 2 [2] | radioactivity of 3H-thymidine incorporated into lymphocytes, Specimen 3 [2]
CC[C@H](C)[C@H](NC(=O)[C@H](CCC(=O)O)NC(=O)[C@H](CC(N)=O)NC(=O)[C@H](CC(N)=O)NC(=O)[C@H](C)NC(=O)[C@H](CSSC[C@H](NC(=O)[C@H](CC(=O)O)NC(=O)[C@H](CCCCN)NC(=O)[C@@H](NC(=O)[C@H](CC(=O)O)NC(=O)[C@@H](NC(=O)[C@H](CCC(N)=O)NC(=O)[C@@H](N)CC(=O)O)C(C)C)C(C)C)C(=O)N[C@@H](C)C(=O)N[C@@H](CC(N)=O)C(=O)N[C@@H](CC(N)=O)C(=O)N[C@@H](CCC(=O)O)C(=O)N[C@H](C(=O)N[C@@H](CCCCN)C(=O)N[C@@H](CCCCN)C(=O)O)[C@@H](C)CC)NC(=O)[C@H](CC(=O)O)NC(=O)[C@H](CCCCN)NC(=O)[C@@H](NC(=O)[C@H](CC(=O)O)NC(=O)[C@@H](NC(=O)[C@H](CCC(N)=O)NC(=O)[C@@H](N)CC(=O)O)C(C)C)C(C)C)C(=O)N[C@@H](CCCCN)C(=O)N[C@@H](CCCCN)C(=O)O [II] (I: H-DQVDVKDCANNEIKK-OH / II: H-DQVDVKDCANNEIKK-OH; disulfide I:8-II:8) | < 100 cpm | 219 cpm | 125 cpm | 158 cpm
CC[C@H](C)[C@H](NC(=O)[C@H](C)NC(=O)[C@H](CSSC[C@H](NC(=O)[C@H](C)NC(=O)[C@H](CC(C)C)NC(=O)[C@@H](NC(=O)CN)C(C)C)C(=O)N[C@@H](C)C(=O)N[C@H](C(=O)N[C@@H](C)C(=O)N[C@H](C(=O)N[C@@H](Cc1c[nH]cn1)C(=O)N[C@@H](C)C(=O)N[C@@H](CCCCN)C(=O)N[C@H](C(=O)N[C@@H](CCCNC(=N)N)C(=O)N[C@@H](CC(=O)O)C(=O)O)[C@@H](C)CC)[C@@H](C)O)[C@@H](C)CC)NC(=O)[C@H](C)NC(=O)[C@H](CC(C)C)NC(=O)[C@@H](NC(=O)CN)C(C)C)C(=O)N[C@@H](C)C(=O)N[C@H](C(=O)N[C@@H](Cc1c[nH]cn1)C(=O)N[C@@H](C)C(=O)N[C@@H](CCCCN)C(=O)N[C@H](C(=O)N[C@@H](CCCNC(=N)N)C(=O)N[C@@H](CC(=O)O)C(=O)O)[C@@H](C)CC)[C@@H](C)O [IV] (I: H-GVLACAIATHAKIRD-OH / II: H-GVLACAIATHAKIRD-OH; disulfide I:5-II:5) | < 100 cpm | 374 cpm | 324 cpm | 162 cpm
CC[C@H](C)[C@H](NC(=O)[C@H](C)NC(=O)[C@H](CSSC[C@H](NC(=O)[C@H](CC(=O)O)NC(=O)[C@H](CCCCN)NC(=O)[C@@H](NC(=O)[C@H](CC(=O)O)NC(=O)[C@@H](NC(=O)[C@H](CCC(N)=O)NC(=O)[C@@H](N)CC(=O)O)C(C)C)C(C)C)C(=O)N[C@@H](C)C(=O)N[C@@H](CC(N)=O)C(=O)N[C@@H](CC(N)=O)C(=O)N[C@@H](CCC(=O)O)C(=O)N[C@H](C(=O)N[C@@H](CCCCN)C(=O)N[C@@H](CCCCN)C(=O)O)[C@@H](C)CC)NC(=O)[C@H](C)NC(=O)[C@H](CC(C)C)NC(=O)[C@@H](NC(=O)CN)C(C)C)C(=O)N[C@@H](C)C(=O)N[C@H](C(=O)N[C@@H](Cc1c[nH]cn1)C(=O)N[C@@H](C)C(=O)N[C@@H](CCCCN)C(=O)N[C@H](C(=O)N[C@@H](CCCNC(=N)N)C(=O)N[C@@H](CC(=O)O)C(=O)O)[C@@H](C)CC)[C@@H](C)O [V] (I: H-DQVDVKDCANNEIKK-OH / II: H-GVLACAIATHAKIRD-OH; disulfide I:8-II:5) | < 100 cpm | 1457 cpm | 430 cpm | 179 cpm
H-DQVDVKDCANNEIKK-OH [I, H-Asp-Gln-Val-Asp-Val-Lys-Asp-Cys-Ala-Asn-Asn-Glu-Ile-Lys-Lys-OH] | < 100 cpm | 281 cpm | 389 cpm | 282 cpm
H-GVLACAIATHAKIRD-OH [III, H-Gly-Val-Leu-Ala-Cys-Ala-Ile-Ala-Thr-His-Ala-Lys-Ile-Arg-Asp-OH] | < 100 cpm | 547 cpm | 259 cpm | 158 cpm
